Reference: ChEMBL document CHEMBL1201862, “PubChem BioAssay data set” (2004)
The source made the active and inactive calls.

Experiments:
[1] = microbe, parasite or virus in culture; format: functional; settings: Mycobacterium tuberculosis
[2] = viability of PTEN-deleted HCT116 cells – cell-based, HCT116 PTEN knockout, dose response (AID 1047); format: functional;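 note: HCT116 colon tumor cells with PTEN knocked out; cells exposed to compound for 60 hours before readout; potency for loss of cell viability measured by luminescence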
[3] = viability of HCT116 lacking mutant beta-catenin – cell-based, human colon tumor, dose response (AID 1045); format: functional;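 note: HCT116 colon tumor cells with beta catenin knocked out; cells exposed to compound for 60 hours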
Protein skinhead-1 = target: T1, Protein skinhead-1 (Caenorhabditis elegans, UniProt P34707); format: functional
T1 sequence (P34707 whole entry): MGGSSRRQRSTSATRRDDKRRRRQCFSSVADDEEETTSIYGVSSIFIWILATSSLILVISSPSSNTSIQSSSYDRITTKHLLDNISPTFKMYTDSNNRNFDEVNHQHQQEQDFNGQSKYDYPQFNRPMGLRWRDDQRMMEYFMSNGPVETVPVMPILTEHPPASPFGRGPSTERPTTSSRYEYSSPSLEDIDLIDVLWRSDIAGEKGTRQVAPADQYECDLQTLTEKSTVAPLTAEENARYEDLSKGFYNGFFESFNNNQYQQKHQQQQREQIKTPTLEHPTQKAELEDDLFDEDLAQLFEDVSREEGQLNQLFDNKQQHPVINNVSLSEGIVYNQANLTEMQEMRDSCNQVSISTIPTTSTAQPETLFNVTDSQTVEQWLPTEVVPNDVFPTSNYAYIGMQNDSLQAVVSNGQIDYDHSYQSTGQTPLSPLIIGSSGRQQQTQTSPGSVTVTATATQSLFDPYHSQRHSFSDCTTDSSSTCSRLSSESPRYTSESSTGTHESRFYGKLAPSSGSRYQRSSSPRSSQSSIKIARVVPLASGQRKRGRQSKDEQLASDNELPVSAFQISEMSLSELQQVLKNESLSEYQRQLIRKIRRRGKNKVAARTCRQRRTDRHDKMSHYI

[4] = target: T2, Short transient receptor potential channel 4 (Mus musculus, UniProt Q9QUQ5); assay: block of DAMGO-driven TRPC4 calcium entry – cell-based, HEK293 TRPC4/mu-opioid, Fluo-4 calcium, dose response (AID 434942); format: functional;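 note: potency of inhibitors blocking the TRPC4 calcium response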
T2 sequence (Q9QUQ5 whole entry): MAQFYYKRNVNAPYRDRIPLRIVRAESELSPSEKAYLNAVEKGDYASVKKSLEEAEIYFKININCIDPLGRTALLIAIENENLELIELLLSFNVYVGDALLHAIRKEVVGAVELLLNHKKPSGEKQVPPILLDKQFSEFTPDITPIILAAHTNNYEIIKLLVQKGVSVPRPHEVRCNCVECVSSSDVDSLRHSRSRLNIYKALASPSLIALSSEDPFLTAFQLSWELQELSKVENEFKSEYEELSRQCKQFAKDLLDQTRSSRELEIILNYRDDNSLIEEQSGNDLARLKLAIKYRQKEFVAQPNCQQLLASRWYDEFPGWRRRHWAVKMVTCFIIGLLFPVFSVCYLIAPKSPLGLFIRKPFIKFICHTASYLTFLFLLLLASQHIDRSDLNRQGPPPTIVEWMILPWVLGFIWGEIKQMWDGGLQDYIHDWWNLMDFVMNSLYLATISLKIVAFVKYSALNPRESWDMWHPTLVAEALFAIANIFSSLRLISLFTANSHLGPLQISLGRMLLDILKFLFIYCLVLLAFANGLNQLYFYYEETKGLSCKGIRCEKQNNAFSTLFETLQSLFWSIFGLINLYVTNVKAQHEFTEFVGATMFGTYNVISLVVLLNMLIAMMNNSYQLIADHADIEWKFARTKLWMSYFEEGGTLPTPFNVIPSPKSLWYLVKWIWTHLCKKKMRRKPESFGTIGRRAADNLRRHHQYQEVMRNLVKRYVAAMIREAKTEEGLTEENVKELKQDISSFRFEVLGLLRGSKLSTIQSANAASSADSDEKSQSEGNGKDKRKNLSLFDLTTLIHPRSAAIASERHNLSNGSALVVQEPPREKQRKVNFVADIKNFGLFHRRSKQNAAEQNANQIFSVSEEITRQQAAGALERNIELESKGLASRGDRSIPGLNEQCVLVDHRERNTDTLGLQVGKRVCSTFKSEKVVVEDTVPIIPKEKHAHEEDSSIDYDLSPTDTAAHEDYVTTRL

[5] = target: T3, Heat shock factor protein 1 (Mus musculus, UniProt P38532); assay: enhancement of HSF1-driven luciferase signal – cell-based, NIH3T3, luminescence, dose retest, confirmation (AID 435004); format: functional;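 note: stress induced by proteasome inhibitor MG132 added 30 min after compound; luciferase reporter driven by HSF1 response element in NIH3T3 cells; actives raise luminescence as potentiators of the MG132 stress response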
T3 sequence (P38532 whole entry): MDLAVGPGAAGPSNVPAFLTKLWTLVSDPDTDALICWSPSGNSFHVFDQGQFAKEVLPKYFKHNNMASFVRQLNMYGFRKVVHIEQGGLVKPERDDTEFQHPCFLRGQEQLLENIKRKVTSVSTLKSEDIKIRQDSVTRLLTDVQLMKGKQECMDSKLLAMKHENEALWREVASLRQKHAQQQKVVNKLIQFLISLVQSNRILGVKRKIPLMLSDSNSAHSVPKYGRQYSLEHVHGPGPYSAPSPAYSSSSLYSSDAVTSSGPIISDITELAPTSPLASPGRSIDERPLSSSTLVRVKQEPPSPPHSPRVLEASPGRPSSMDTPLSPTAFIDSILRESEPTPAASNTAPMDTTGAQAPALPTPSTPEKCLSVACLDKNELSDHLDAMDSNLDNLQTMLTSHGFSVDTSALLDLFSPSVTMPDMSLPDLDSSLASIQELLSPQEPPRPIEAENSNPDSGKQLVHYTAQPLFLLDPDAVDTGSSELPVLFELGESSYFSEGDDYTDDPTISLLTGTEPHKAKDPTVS

[6] = NIH-3T3 fibroblast cytotoxicity, dose response, cytotoxicity control, cell-based, fluorescence, Alamar Blue, secondary assay (AID 2327); format: functional;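 note: NIH-3T3 mouse fibroblasts cultured with fluconazole at 8 µg/mL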
[7] = fluconazole-exposed Candida albicans growth modulators – fluorescence, retest, confirmation (AID 2467); format: functional, cell-based
Nonstructural protein 1 = Nonstructural protein 1 (Influenza A virus, UniProt Q194T2); format: functional, Influenza A virus (A/California/07/2009(H1N1))
INS1 = assay: INS-1E survival protection against cytokine death – cell-based, luminescence, retest, dose response (AID 449756); format: functional; settings: Rattus norvegicus;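 note: cell death triggered by IL-1 beta plus TNF-alpha plus IFN-gamma mixture; protective hits raise ATP signal compared with cytokine alone wells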

Sequence of Nonstructural protein 1 (Q194T2 whole entry): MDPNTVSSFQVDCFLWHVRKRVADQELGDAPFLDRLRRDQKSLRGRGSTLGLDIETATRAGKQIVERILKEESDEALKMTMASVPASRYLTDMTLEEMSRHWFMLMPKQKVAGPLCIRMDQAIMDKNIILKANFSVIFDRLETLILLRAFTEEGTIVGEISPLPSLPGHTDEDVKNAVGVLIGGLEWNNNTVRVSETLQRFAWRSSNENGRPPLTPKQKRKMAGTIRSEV

In the case of ClCc1nc2ccccc2c2ccccc12, the CC50 [1] is reported as 18.6 µM (active).
In the case of O=C(C1CCCN(S(=O)(=O)c2ccc(F)cc2)C1)N(Cc1cccs1)C1CC1 (stereo not given), the EC50 [2] is reported as 51.6 µM (active) and the EC50 [3] is reported as 137 µM (active).
In the case of O=[N+]([O-])c1cccc(/C=C/c2ccccn2)c1, the IC50 (Protein skinhead-1) is reported as 39.8 µM (active).
With COc1cc(C2C(C#N)=C(C)N=C3C2=C(O)c2ccccc23)cc(OC)c1OC (stereo not given) the EC50 [2] was 16.1 µM (active) and the EC50 [3] was 21.5 µM (active).
For Cn1c(-c2ccccc2)cnc1NCc1ccc(F)cc1, the EC50 [4] was 1.88 µM (active).
In the case of Fc1ccc(-c2nnc3ccc(N4CCc5ccccc5C4)nn23)cc1, the EC50 [2] is reported as 40.1 µM (active), the EC50 [3] is reported as 54 µM (active) and the EC50 [5] is reported as > 260 µM (inactive).
For COc1ccc(C(C(=O)NC2CCCCC2)N(Cc2cccs2)C(=O)Cc2c[nH]c3ccccc23)cc1 (stereo not given), the EC50 [6] was > 150 µM (inactive), the EC50 [7] was > 38 µM (not active) and the IC50 (Protein skinhead-1) was > 100 µM (inactive).
For Cc1cccc(NC(=O)c2ccc3c(c2)C(=O)N(c2ccccc2C)C3=O)n1, the IC50 (Protein skinhead-1) was > 100 µM (inactive).
In the case of Brc1cccc(-c2nc3ccc(Br)cn3c2Cc2ccsc2)c1, the IC50 (Protein skinhead-1) is reported as > 100 µM (inactive).
With Cc1cc(=O)oc2c(C)c(OCC(=O)N3CCN(C(=O)C4COc5ccccc5O4)CC3)ccc12 (stereo not given) the CC50 [1] was > 40 µM (active).
In the case of Cc1nnc2sc(SCC(=O)Nc3cccc(Cl)c3)nn2c1=O, the IC50 (Nonstructural protein 1) is reported as 10.4 µM (active).
For COc1cc(C(=O)N/N=C(\C)c2ccccn2)cc(OC)c1OC, the IC50 (Nonstructural protein 1) was 16.9 µM (active) and the AC50 (INS1) was 1.94 µM (active).
For C=C(C)Cn1c(SCC)nc2ccccc2c1=O, the EC50 [4] was 4.73 µM (active).
